The nature of one series: in vitro. The settings on record: human, plasma.
The target of the next series is DPP4 (Homo sapiens, UniProt P27487). The series is described as follows: in vitro. Particulars: recombinant enzyme.
The next series is described as follows: Rat plasma stability. The settings on record: rat, plasma. The format is in vitro ADME. How it is done:
Rat and human plasma were obtained from qualified vendors. […] The assay was performed in duplicate.

Series [1] is described as follows: Chemical stability at pH 4.5 and pH 7.4 in PBS. Type of series: physicochemical. The settings on record: 5 μM, up to 240 min; for Chemical Stability, pH 4.5: PBS pH 4.5, 37° C.; for Chemical Stability, pH 7.4: PBS pH 7.4, 37° C. How it is done:
The assay was performed in duplicate. […] Samples were incubated at 37° C. at 600 rpm.

The target of series [2] is T1, Glucocorticoid receptor (GR) (Homo sapiens, UniProt P04150).
T1 sequence (P04150 1-777): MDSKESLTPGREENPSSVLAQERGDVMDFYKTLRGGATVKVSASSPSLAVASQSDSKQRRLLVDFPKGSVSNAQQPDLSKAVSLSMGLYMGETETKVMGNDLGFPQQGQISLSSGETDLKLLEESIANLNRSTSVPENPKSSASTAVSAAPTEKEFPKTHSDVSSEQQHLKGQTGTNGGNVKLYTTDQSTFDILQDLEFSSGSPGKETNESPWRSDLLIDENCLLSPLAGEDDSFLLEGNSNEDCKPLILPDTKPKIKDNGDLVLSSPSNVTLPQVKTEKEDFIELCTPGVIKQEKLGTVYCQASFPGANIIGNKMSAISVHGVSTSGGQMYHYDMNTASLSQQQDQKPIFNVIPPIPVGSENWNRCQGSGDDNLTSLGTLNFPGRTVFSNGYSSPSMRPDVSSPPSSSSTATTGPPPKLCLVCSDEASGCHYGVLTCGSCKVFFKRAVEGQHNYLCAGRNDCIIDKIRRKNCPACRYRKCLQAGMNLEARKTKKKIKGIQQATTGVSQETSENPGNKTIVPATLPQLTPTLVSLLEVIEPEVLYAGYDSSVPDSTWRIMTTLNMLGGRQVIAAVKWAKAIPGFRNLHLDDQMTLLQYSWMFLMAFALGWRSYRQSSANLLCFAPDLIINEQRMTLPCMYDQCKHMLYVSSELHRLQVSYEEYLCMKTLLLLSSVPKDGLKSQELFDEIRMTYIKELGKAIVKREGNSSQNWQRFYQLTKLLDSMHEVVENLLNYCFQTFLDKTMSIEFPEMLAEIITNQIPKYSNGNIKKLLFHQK
The series is described as follows: TR-FRET GR competitive binding assay. The settings on record: 0.1 μM. How it is done:
Glucocorticoid receptor (GR) binding of prodrugs was determined using TR-FRET GR competitive binding assay. Three-point (0.1, 1 and 10 μM) binding was evaluated for each prodrug.

The mark [3] stands for this setting: read-out: Rat Plasma Stability t½.

DPP4, sequence (P27487 whole entry, species assumed): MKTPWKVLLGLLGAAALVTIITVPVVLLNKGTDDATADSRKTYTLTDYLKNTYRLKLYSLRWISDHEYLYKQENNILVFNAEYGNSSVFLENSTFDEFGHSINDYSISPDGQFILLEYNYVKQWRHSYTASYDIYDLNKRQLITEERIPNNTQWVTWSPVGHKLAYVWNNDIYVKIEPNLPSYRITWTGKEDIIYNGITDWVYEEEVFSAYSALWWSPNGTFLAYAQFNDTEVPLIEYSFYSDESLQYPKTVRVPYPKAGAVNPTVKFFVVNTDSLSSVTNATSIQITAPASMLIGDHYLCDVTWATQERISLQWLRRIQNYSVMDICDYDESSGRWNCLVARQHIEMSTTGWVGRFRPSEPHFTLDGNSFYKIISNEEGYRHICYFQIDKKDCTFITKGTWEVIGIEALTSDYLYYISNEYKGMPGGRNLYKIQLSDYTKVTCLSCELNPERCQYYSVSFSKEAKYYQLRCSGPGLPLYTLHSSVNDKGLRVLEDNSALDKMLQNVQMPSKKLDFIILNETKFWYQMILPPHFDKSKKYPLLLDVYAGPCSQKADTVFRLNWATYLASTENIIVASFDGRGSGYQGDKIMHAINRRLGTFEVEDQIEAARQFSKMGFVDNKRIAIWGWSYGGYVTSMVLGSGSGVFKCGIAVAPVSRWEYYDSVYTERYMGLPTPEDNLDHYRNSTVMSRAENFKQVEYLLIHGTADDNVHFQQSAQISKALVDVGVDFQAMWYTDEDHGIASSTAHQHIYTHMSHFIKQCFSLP
Protocol for DPP4: Aliquots were withdrawn at 0, 60 and 120 minutes from the reaction mixture and quenched with 20-volumes of cold acetonitrile. […] Glycine-proline p-nitroanilide was used as a positive control for this assay.
Protocol for Human plasma stability: Rat and human plasma were obtained from qualified vendors. 5 μL of 500 μM of the test article solution was added to 495 μL of pre-incubated human or rat plasma to reach a final concentration of 5 μM. The final concentration of organic solvents was not more than 0.5%. The assay was performed in duplicate. The reaction samples were incubated in a 37° C. water bath with shaking at approximately 60 rpm. 50 μL of the reaction samples were collected at 0, 30, 60, 120 and 180 minutes. The reaction was stopped by adding 300 μL of room temperature quench solution (acetonitrile containing internal standards (IS, 200 nM labetalol, 100 nM alprazolam and 2 μM ketoprofen)). The samples were vortexed for 5 minutes followed by centrifugation of the samples at 3,220 g for 30 minutes at room temperature to precipitate the protein. 100 μL of the supernatant was transferred to a new plate and diluted with 100 μL or 200 μL water according to the LC/MS signal response and peak shape. The samples were mixed well and analyzed using LC/MS/MS. The remaining percentage of parent drug versus reaction time was used to calculate the t1/2 value.

Compound `CC(C)C(N)C(=O)OCC(=O)[C@@]1(O)[C@H](C)C[C@H]2[C@@H]3CCC4=CC(=O)C=C[C@]4(C)[C@@]3(F)[C@@H](O)C[C@@]21C` (some centres unmarked) [Comparative Compound 1, reference compound] displayed a half-life at 5 μM in the series “in vitro” of 2.88 h. As for `C[C@@H]1C[C@H]2[C@@H]3CCC4=CC(=O)C=C[C@]4(C)[C@@]3(F)[C@@H](O)C[C@]2(C)[C@@]1(O)C(=O)COC(=O)[C@@H]1CCCN1` [Comparative Compound 3, reference compound], the half-life at 5 μM in “in vitro” turned out to be 0.417 h.

In turn, `CC(C)[C@H](N)C(=O)Nc1ccc(C(=O)OCC(=O)[C@@]2(O)[C@H](C)C[C@H]3[C@@H]4CCC5=CC(=O)C=C[C@]5(C)[C@@]4(F)[C@@H](O)C[C@@]32C)cc1` [Compound 1] yielded a half-life at 5 μM in “in vitro” of over 4 h. As for `CC(C)[C@H](NC(=O)[C@@H]1CCCN1C(=O)CN)C(=O)Nc1ccc(C(=O)OCC(=O)[C@@]2(O)[C@H](C)C[C@H]3[C@@H]4CCC5=CC(=O)C=C[C@]5(C)[C@@]4(F)[C@@H](O)C[C@@]32C)cc1` [Compound 3], the half-life at 10 μM on DPP4 was found to be 2.53 h. In the case of `CC(C)[C@H](N)C(=O)Nc1ccc(C(=O)OCC(=O)[C@@]2(O)[C@H](C)C[C@H]3[C@@H]4CCC5=CC(=O)C=C[C@]5(C)[C@@]4(F)[C@@H](O)C[C@@]32C)cc1F` [Compound 6], the half-life at 5 μM in “Rat plasma stability” and in “in vitro” was over 4 h throughout.

With `C[C@@H]1CC2[C@@H]3CCC4=CC(=O)C=C[C@]4(C)[C@@]3(F)[C@@H](O)C[C@]2(C)[C@@]1(O)C(=O)COC(=O)c1cccc(F)c1NC(=O)[C@@H](N)Cc1ccccc1.Cl` (some centres unmarked) [Compound 7], in series [1], the “Chemical Stability, pH 4.5” value is given as “Yes” and the “Chemical Stability, pH 7.4” value is “Yes”.

Turning to `COc1cc(NC(=O)[C@@H](N)C(C)C)c(C(=O)OCC(=O)[C@@]2(O)[C@H](C)CC3[C@@H]4CCC5=CC(=O)C=C[C@]5(C)[C@@]4(F)[C@@H](O)C[C@@]32C)c(OC)c1` (some centres unmarked) [Compound 11], the half-life at 5 μM in the series “Rat plasma stability” and in the series “in vitro” was over 4 h throughout. Regarding `COc1cc(NC(=O)[C@@H](N)Cc2ccccc2)c(C(=O)OCC(=O)[C@@]2(O)[C@H](C)CC3[C@@H]4CCC5=CC(=O)C=C[C@]5(C)[C@@]4(F)[C@@H](O)C[C@@]32C)c(OC)c1` (some centres unmarked) [Compound 12], the half-life at 5 μM in “Rat plasma stability” and in “in vitro” was over 4 h in each case. As to `COc1cc(Br)c(C(=O)OCC(=O)[C@@]2(O)[C@H](C)CC3[C@@H]4CCC5=CC(=O)C=C[C@]5(C)[C@@]4(F)[C@@H](O)C[C@@]32C)c(NC(=O)[C@@H](N)C(C)C)c1` (some centres unmarked) [Compound 13], the half-life at 5 μM in the series “Rat plasma stability” and in the series “in vitro” was over 4 h throughout. Consider `COc1cc(NC(=O)[C@@H](N)C(C)C)c(C(=O)OCC(=O)[C@@]2(O)[C@H](C)CC3[C@@H]4CCC5=CC(=O)C=C[C@]5(C)[C@@]4(F)[C@@H](O)C[C@@]32C)c(OC(C)C)c1` (some centres unmarked) [Compound 14], for which the half-life at 5 μM in the series “Rat plasma stability” and in “in vitro” was over 4 h in each case. Turning to `COc1cc(N(C)C)cc(NC(=O)[C@@H](N)Cc2ccccc2)c1C(=O)OCC(=O)[C@@]1(O)[C@H](C)CC2[C@@H]3CCC4=CC(=O)C=C[C@]4(C)[C@@]3(F)[C@@H](O)C[C@@]21C` (some centres unmarked) [Compound 15], the half-life at 5 μM in the series “Rat plasma stability” and in “in vitro” was over 4 h each time. Consider `COc1cc(N(C)C)cc(NC(=O)[C@H](Cc2ccccc2)N(C)C)c1C(=O)OCC(=O)[C@@]1(O)[C@H](C)CC2[C@@H]3CCC4=CC(=O)C=C[C@]4(C)[C@@]3(F)[C@@H](O)C[C@@]21C` (some centres unmarked) [Compound 16], for which the half-life at 5 μM in the series “Rat plasma stability” and in “in vitro” was over 4 h throughout.

Turning to `CC(CC(=O)OCC(=O)[C@@]1(O)[C@H](C)C[C@H]2[C@@H]3CCC4=CC(=O)C=C[C@]4(C)[C@@]3(F)[C@@H](O)C[C@@]21C)c1ccccc1NC(=O)[C@@H](N)C(C)C.Cl` (some centres unmarked) [Compound 18], the “GR Binding Data” value in series [2] came out at 46%.

On to `C[C@@H]1C[C@H]2[C@@H]3CCC4=CC(=O)C=C[C@]4(C)[C@@]3(F)[C@@H](O)C[C@]2(C)[C@@]1(O)C(=O)COC(=O)NCc1ccccc1NC(=O)[C@@H](N)Cc1ccccc1.Cl` [Compound 23], for which the half-life at 5 μM in “Rat plasma stability” (setting [3]) and in “Human plasma stability” was over 4 h throughout. With `CC(C)[C@H](N)C(=O)Nc1ccc([C@H](C)NC(=O)OCC(=O)[C@@]2(O)[C@H](C)C[C@H]3[C@@H]4CCC5=CC(=O)C=C[C@]5(C)[C@@]4(F)[C@@H](O)C[C@@]32C)cc1` [Compound 24], the half-life at 5 μM in “Rat plasma stability” and in the series “in vitro” was over 4 h each time. Take `CC(NNC(=O)C1CCCN1)C(C)C(=O)OCC(=O)[C@@]1(O)[C@H](C)C[C@H]2[C@@H]3CCC4=CC(=O)C=C[C@]4(C)[C@@]3(F)[C@@H](O)C[C@@]21C` (some centres unmarked) [Compound 28]: the values for the half-life at 5 μM in the series “Rat plasma stability” and in “in vitro” were 2.45 h and over 4 h, respectively.

Turning to `CNC(C(=O)N1CCCC1C(=O)NCC(C)(C)C(C)C(=O)OCC(=O)[C@@]1(O)[C@H](C)C[C@H]2[C@@H]3CCC4=CC(=O)C=C[C@]4(C)[C@@]3(F)[C@@H](O)C[C@@]21C)C(C)C` (some centres unmarked) [Compound 32], the half-life at 10 μM on DPP4 was determined as 3.57 h. Consider `CC(C)C(N)C(=O)N1CCCC1C(=O)NCC1(CC(=O)OCC(=O)[C@@]2(O)[C@H](C)C[C@H]3[C@@H]4CCC5=CC(=O)C=C[C@]5(C)[C@@]4(F)[C@@H](O)C[C@@]32C)CC1` (some centres unmarked) [Compound 34], for which the half-life at 5 μM in the series “Rat plasma stability” and in “in vitro” was over 4 h each time. On to `CC(NC(C)[C@@H](N)C(C)C)c1cscc1C(=O)OCC(=O)[C@@]1(O)[C@H](C)C[C@H]2[C@@H]3CCC4=CC(=O)C=C[C@]4(C)[C@@]3(F)[C@@H](O)C[C@@]21C` (some centres unmarked) [Compound 35], for which the half-life at 5 μM in the series “Rat plasma stability” and in “in vitro” was over 4 h in each case.

With `CC(NC(=O)[C@@H](N)Cc1ccccc1)c1cscc1C(=O)OCC(=O)[C@@]1(O)[C@H](C)C[C@H]2[C@@H]3CCC4=CC(=O)C=C[C@]4(C)[C@@]3(F)[C@@H](O)C[C@@]21C` (some centres unmarked) [Compound 36], the half-life at 5 μM in the series “Rat plasma stability” and in “in vitro” was over 4 h each time. Consider `CC(C)[C@H](N)C(=O)NCCc1cscc1C(=O)OCC(=O)[C@@]1(O)[C@H](C)C[C@H]2[C@@H]3CCC4=CC(=O)C=C[C@]4(C)[C@@]3(F)[C@@H](O)C[C@@]21C` [Compound 37], for which the half-life at 5 μM in the series “Rat plasma stability” and in the series “in vitro” was over 4 h in each case. `CC(C)[C@H](N)C(=O)Nc1cscc1CC(=O)OCC(=O)[C@@]1(O)[C@H](C)C[C@H]2[C@@H]3CCC4=CC(=O)C=C[C@]4(C)[C@@]3(F)[C@@H](O)C[C@@]21C.Cl` [Compound 38]: the half-life at 5 μM in the series “Rat plasma stability” (setting [3]) and in “Human plasma stability” was over 4 h in each case. In series [1], the “Chemical Stability, pH 4.5” value was “Yes”. The “Chemical Stability, pH 7.4” value in series [1] is on record as “Yes”. As for `C[C@@H]1C[C@H]2[C@@H]3CCC4=CC(=O)C=C[C@]4(C)[C@@]3(F)[C@@H](O)C[C@]2(C)[C@@]1(O)C(=O)CO` [Dexamethasone, reference compound], the “GR Binding Data” value in series [2] is on record as 85%.

Values taken from patent US20260027131A1, “PRODRUGS, PRODRUG COMPOSITIONS AND RELATED METHODS” (Praesidia Biotherapeutics Inc., priority 2022, published 2026).
